{
  "source": "paper PMC6691788",
  "about": "“Design and synthesis of phthalazine-based compounds as potent anticancer agents with potential antiangiogenic activity via VEGFR-2 inhibition” (Journal of Enzyme Inhibition and Medicinal Chemistry, 2019)",
  "assay_in_all_cases": "NCI 60 cell panel SRB screen",
  "key": {"[1]": {"tested_on": "SNB-75", "assay_type": "cell-based", "conditions": "Homo sapiens"}, "[2]": {"tested_on": "U251", "assay_type": "cell-based", "conditions": "Homo sapiens, U-251"}, "[3]": {"tested_on": "LOX IMVI", "assay_type": "cell-based", "conditions": "Homo sapiens"}, "[4]": {"tested_on": "UACC-257", "assay_type": "cell-based", "conditions": "Homo sapiens"}, "[5]": {"tested_on": "UACC-62", "assay_type": "cell-based"}, "[6]": {"tested_on": "OVCAR-5", "assay_type": "cell-based", "conditions": "Homo sapiens"}, "[7]": {"tested_on": "SK-OV-3", "assay_type": "cell-based", "conditions": "Homo sapiens"}, "[8]": {"tested_on": "ACHN", "assay_type": "cell-based", "conditions": "Homo sapiens"}, "[9]": {"tested_on": "CAKI-1", "assay_type": "cell-based, human", "conditions": "Homo sapiens; CAKI-1, single dose 10 μM; read-out: percent cell growth promotion"}, "[10]": {"tested_on": "SN12C", "assay_type": "cell-based", "conditions": "Homo sapiens"}, "[11]": {"tested_on": "TK-10", "assay_type": "cell-based, human", "conditions": "Homo sapiens; TK-10, single dose 10 μM; read-out: percent cell growth promotion"}, "[12]": {"tested_on": "DU-145", "assay_type": "cell-based", "conditions": "Homo sapiens"}, "[13]": {"tested_on": "MCF7", "assay_type": "cell-based", "conditions": "Homo sapiens"}, "[14]": {"tested_on": "MDA-MB 231/ATCC", "assay_type": "cell-based", "conditions": "Homo sapiens"}, "[15]": {"tested_on": "HS 578T", "assay_type": "cell-based", "conditions": "Homo sapiens"}, "[16]": {"tested_on": "BT-549", "assay_type": "cell-based", "conditions": "Homo sapiens"}, "[17]": {"tested_on": "T-47D", "assay_type": "cell-based", "conditions": "Homo sapiens, T47D"}, "[18]": {"conditions": "5 log dose, 48 h, read-out: LC50 (the source's name)"}, "[19]": {"conditions": "read-out: percent cell growth promotion"}, "[20]": {"conditions": "single dose 10 μM, read-out: percent cell growth promotion"}},
  "data": [
    {"smiles": "Clc1ccc(Nc2nnc(CNc3ccccc3)c3ccccc23)cc1", "note": "[Compound 16a, N-(4-Chlorophenyl)-4-((phenylamino)methyl)phthalazin-1-amine]", "values": [
      {"measurement": "GI50", "setting": "[1]; SNB-75, 5 log dose", "value": 0.87, "unit": "µM"},
      {"measurement": "IC (TGI)", "setting": "[1]; SNB-75, 5 log dose", "value": 7.05, "unit": "µM"},
      {"measurement": "LC50 (concentration killing 50% of cells)", "setting": "[1]; SNB-75, 5 log dose, 48 h", "value": "> 25", "unit": "µM"},
      {"measurement": "activity at 10 µM", "setting": "[1]; SNB-75, single dose 10 μM, read-out: percent cell growth promotion", "value": 19.6, "unit": "%"},
      {"measurement": "GI50", "setting": "[2]; U251, 5 log dose", "value": 3.28, "unit": "µM"},
      {"measurement": "IC (TGI)", "setting": "[2]; U251, 5 log dose", "value": 7.33, "unit": "µM"},
      {"measurement": "CC50", "setting": "[2]; U251, 5 log dose, 48 h, read-out: LC50 (the source's name)", "value": 16.4, "unit": "µM"},
      {"measurement": "activity at 10 µM", "setting": "[2]; U251, single dose 10 μM, read-out: percent cell growth promotion", "value": 9.66, "unit": "%"},
      {"measurement": "GI50", "setting": "[3]", "value": 1.57, "unit": "µM"},
      {"measurement": "CC50", "setting": "[3]; [18]", "value": 11.4, "unit": "µM"},
      {"measurement": "IC (TGI)", "setting": "[3]; read-out: TGI", "value": 4.97, "unit": "µM"},
      {"measurement": "activity at 10 µM", "setting": "[3]; [19]", "value": 12.1, "unit": "%"},
      {"measurement": "GI50", "setting": "[4]; UACC-257", "value": 2.74, "unit": "µM"},
      {"measurement": "IC (TGI)", "setting": "[4]; UACC-257, read-out: TGI", "value": 6.87, "unit": "µM"},
      {"measurement": "activity at 10 µM", "setting": "[4]; UACC-257, read-out: percent cell growth promotion", "value": -6.49, "unit": "%"},
      {"measurement": "CC50", "setting": "[4]; UACC-257, 5 log dose, 48 h, read-out: LC50 (the source's name)", "value": 17.2, "unit": "µM"},
      {"measurement": "GI50", "setting": "[5]; Homo sapiens, UACC-62", "value": 1.25, "unit": "µM"},
      {"measurement": "activity at 10 µM", "setting": "[5]; Homo sapiens, UACC-62, read-out: percent cell growth promotion", "value": 8.47, "unit": "%"},
      {"measurement": "CC50", "setting": "[5]; Homo sapiens, UACC-62, 5 log dose, 48 h, read-out: LC50 (the source's name)", "value": 19, "unit": "µM"},
      {"measurement": "TGI", "setting": "[5]; UACC-62, 5 log dose", "value": 5.70, "unit": "µM"},
      {"measurement": "GI50", "setting": "[6]; OVCAR-5, 5 log dose", "value": 4.92, "unit": "µM"},
      {"measurement": "IC (TGI)", "setting": "[6]; OVCAR-5, 5 log dose", "value": "> 25", "unit": "µM"},
      {"measurement": "CC50", "setting": "[6]; OVCAR-5, 5 log dose, 48 h, read-out: LC50 (the source's name)", "value": "> 25", "unit": "µM"},
      {"measurement": "activity at 10 µM", "setting": "[6]; OVCAR-5, single dose 10 μM, read-out: percent cell growth promotion", "value": 41.5, "unit": "%"},
      {"measurement": "GI50", "setting": "[7]; SK-OV-3, 5 log dose", "value": 3.17, "unit": "µM"},
      {"measurement": "IC (TGI)", "setting": "[7]; SK-OV-3, 5 log dose", "value": 11.4, "unit": "µM"},
      {"measurement": "CC50", "setting": "[7]; SK-OV-3, 5 log dose, 48 h, read-out: LC50 (the source's name)", "value": "> 25", "unit": "µM"},
      {"measurement": "activity at 10 µM", "setting": "[7]; SK-OV-3, single dose 10 μM, read-out: percent cell growth promotion", "value": 22, "unit": "%"},
      {"measurement": "GI50", "setting": "[8]; 5 log dose", "value": 3.1, "unit": "µM"},
      {"measurement": "IC (TGI)", "setting": "[8]; 5 log dose", "value": "> 25", "unit": "µM"},
      {"measurement": "CC50", "setting": "[8]; [18]", "value": "> 25", "unit": "µM"},
      {"measurement": "activity at 10 µM", "setting": "[8]; [20]", "value": 7.07, "unit": "%"},
      {"measurement": "activity at 10 µM", "setting": "[9]", "value": 28.2, "unit": "%"},
      {"measurement": "GI50", "setting": "[10]; 5 log dose", "value": 3.95, "unit": "µM"},
      {"measurement": "IC (TGI)", "setting": "[10]; 5 log dose", "value": 18.9, "unit": "µM"},
      {"measurement": "CC50", "setting": "[10]; [18]", "value": "> 25", "unit": "µM"},
      {"measurement": "activity at 10 µM", "setting": "[10]; [20]", "value": 28.9, "unit": "%"},
      {"measurement": "activity at 10 µM", "setting": "[11]", "value": -0.69, "unit": "%"},
      {"measurement": "GI50", "setting": "[12]; DU-145, 5 log dose", "value": "> 25", "unit": "µM"},
      {"measurement": "IC (TGI)", "setting": "[12]; DU-145, 5 log dose", "value": "> 25", "unit": "µM"},
      {"measurement": "CC50", "setting": "[12]; DU-145, 5 log dose, 48 h, read-out: LC50 (the source's name)", "value": "> 25", "unit": "µM"},
      {"measurement": "activity at 10 µM", "setting": "[12]; DU-145, single dose 10 μM, read-out: percent cell growth promotion", "value": 19, "unit": "%"},
      {"measurement": "IC (TGI)", "setting": "[13]; MCF7, read-out: TGI", "value": 11.1, "unit": "µM"},
      {"measurement": "activity at 10 µM", "setting": "[13]; MCF7, read-out: percent cell growth promotion", "value": 9.2, "unit": "%"},
      {"measurement": "CC50", "setting": "[13]; MCF7, 5 log dose, 48 h, read-out: LC50 (the source's name)", "value": "> 25", "unit": "µM"},
      {"measurement": "GI50", "setting": "[14]; MDA-MB-231", "value": 1.95, "unit": "µM"},
      {"measurement": "IC (TGI)", "setting": "[14]; MDA-MB-231, read-out: TGI", "value": 8.73, "unit": "µM"},
      {"measurement": "activity at 10 µM", "setting": "[14]; MDA-MB-231, read-out: percent cell growth promotion", "value": 19.9, "unit": "%"},
      {"measurement": "CC50", "setting": "[14]; MDA-MB-231, MDA-MDA 231/ATCC, 5 log dose, 48 h, read-out: LC50 (the source's name)", "value": "> 25", "unit": "µM"},
      {"measurement": "GI50", "setting": "[15]; Hs-578T", "value": 2.95, "unit": "µM"},
      {"measurement": "IC (TGI)", "setting": "[15]; Hs-578T, read-out: TGI", "value": 12.9, "unit": "µM"},
      {"measurement": "activity at 10 µM", "setting": "[15]; Hs-578T, read-out: percent cell growth promotion", "value": 26.6, "unit": "%"},
      {"measurement": "CC50", "setting": "[15]; HS 578T, 5 log dose, 48 h, read-out: LC50 (the source's name)", "value": "> 25", "unit": "µM"},
      {"measurement": "GI50", "setting": "[16]; BT-549", "value": 2.93, "unit": "µM"},
      {"measurement": "IC (TGI)", "setting": "[16]; BT-549, read-out: TGI", "value": 8.2, "unit": "µM"},
      {"measurement": "activity at 10 µM", "setting": "[16]; BT-549, read-out: percent cell growth promotion", "value": 4.94, "unit": "%"},
      {"measurement": "CC50", "setting": "[16]; BT-549, 5 log dose, 48 h, read-out: LC50 (the source's name)", "value": 22.9, "unit": "µM"},
      {"measurement": "GI50", "setting": "[17]", "value": 1.17, "unit": "µM"},
      {"measurement": "IC (TGI)", "setting": "[17]; read-out: TGI", "value": 8.28, "unit": "µM"},
      {"measurement": "activity at 10 µM", "setting": "[17]; [19]", "value": 2.82, "unit": "%"},
      {"measurement": "CC50", "setting": "[17]; T-47D, 5 log dose, 48 h, read-out: LC50 (the source's name)", "value": "> 25", "unit": "µM"}
    ]}
  ]
}
